This test relates to A2780. Description: Cytotoxicity against human A2780 cells. The test is classed as functional, cell-based.

Converted amounts (≈) assume the structure as drawn.

As a reminder, the IC50 is the midpoint of a concentration-inhibition curve.

`CC(C)=C1C/C=C(\C)CC/C=C(\C)CC1`: the IC50 was found to be 6.4 µg/mL (≈ 31.3 µM). To `C[C@H]1[C@H](C)CC[C@]2(C)CC[C@]3(C)C(=CC[C@@H]4[C@@]5(C)CC[C@H](O)C(C)(C)[C@@H]5CC[C@]43C)[C@H]12` belongs 20.6 µg/mL (≈ 48.3 µM); to `CC1(C)CC[C@]2(C)CC=C3[C@]4(C)CC[C@H]5C(C)(C)[C@H](O)CC[C@]5(C)[C@H]4CC[C@@]3(C)[C@@H]2C1`, 24.4 µg/mL (≈ 57.2 µM); to `CC(=O)O[C@H]1O[C@H]2C[C@@]13CC=C1[C@]4(C)[C@@H]5O[C@@H]5[C@H]5C(C)(C)[C@H](O)CC[C@]5(C)[C@H]4CC[C@@]1(C)[C@@H]3CC2(C)C`, 21.5 µg/mL (≈ 41.9 µM). Molecule `CC1=C2C[C@H]3O[C@]3(C)CC[C@H]3O[C@@]3(C)C[C@@H]2OC1=O` displayed an IC50 of 3.8 µg/mL (≈ 14.4 µM).

As to `CC1=C2C/C=C(\C)CC/C=C(\C)C[C@@H]2OC1=O` [GLECHOMANOLIDE], it took 5.3 µg/mL (≈ 22.8 µM) to reach half-maximal inhibition (IC50).

Take `C=C[C@]1(C)C[C@@H]2OC(=O)C(C)=C2C[C@H]1C(=C)C` [ISOGERMAFURENOLIDE]: the IC50 stood at 4.5 µg/mL (≈ 19.4 µM). Next, `C=C(C)[C@@H]1CC[C@]2(C)CC[C@]3(C)[C@H](CC[C@@H]4[C@@]5(C)CC[C@H](OC(C)=O)C(C)(C)[C@@H]5CC[C@]43C)[C@@H]12` [LUPENYL ACETATE]: 22.6 µg/mL; `C=C(C)[C@@H]1CC[C@]2(C)CC[C@]3(C)[C@H](CC[C@@H]4[C@@]5(C)CC[C@H](O)C(C)(C)[C@@H]5CC[C@]43C)[C@@H]12` [LUPEOL]: 26.4 µg/mL (≈ 61.9 µM). Next, `CC1(C)CC[C@]2(C)CC=C3[C@]4(C)CC[C@H]5C(C)(C)[C@@H](O)CC[C@]5(C)[C@H]4CC[C@@]3(C)[C@@H]2C1` [TARAXEROL]: 21.8 µg/mL (≈ 51.1 µM).
